Data taken from article PMC10840383, “Clinical features, functional consequences, and rescue pharmacology of missense GRID1 and GRID2 human variants” (Human Molecular Genetics, 2023).
Substitutions are numbered along the chain they refer to.

Assays:
Type in all cases: cell-based
Conditions in all cases: positive = increase, negative = decrease of activity
GluD2-D535E = biological target: T1, GluD2-D535E (Rattus norvegicus, UniProt Q63226, D535E); assay: TEVC of constitutive current, Xenopus oocytes expressing GluD2-D535E
T1 construct: expressed in transfected cells; host or cells: Xenopus laevis oocytes injected with cRNA
T1 sequence (Q63226 24-1007 D535E): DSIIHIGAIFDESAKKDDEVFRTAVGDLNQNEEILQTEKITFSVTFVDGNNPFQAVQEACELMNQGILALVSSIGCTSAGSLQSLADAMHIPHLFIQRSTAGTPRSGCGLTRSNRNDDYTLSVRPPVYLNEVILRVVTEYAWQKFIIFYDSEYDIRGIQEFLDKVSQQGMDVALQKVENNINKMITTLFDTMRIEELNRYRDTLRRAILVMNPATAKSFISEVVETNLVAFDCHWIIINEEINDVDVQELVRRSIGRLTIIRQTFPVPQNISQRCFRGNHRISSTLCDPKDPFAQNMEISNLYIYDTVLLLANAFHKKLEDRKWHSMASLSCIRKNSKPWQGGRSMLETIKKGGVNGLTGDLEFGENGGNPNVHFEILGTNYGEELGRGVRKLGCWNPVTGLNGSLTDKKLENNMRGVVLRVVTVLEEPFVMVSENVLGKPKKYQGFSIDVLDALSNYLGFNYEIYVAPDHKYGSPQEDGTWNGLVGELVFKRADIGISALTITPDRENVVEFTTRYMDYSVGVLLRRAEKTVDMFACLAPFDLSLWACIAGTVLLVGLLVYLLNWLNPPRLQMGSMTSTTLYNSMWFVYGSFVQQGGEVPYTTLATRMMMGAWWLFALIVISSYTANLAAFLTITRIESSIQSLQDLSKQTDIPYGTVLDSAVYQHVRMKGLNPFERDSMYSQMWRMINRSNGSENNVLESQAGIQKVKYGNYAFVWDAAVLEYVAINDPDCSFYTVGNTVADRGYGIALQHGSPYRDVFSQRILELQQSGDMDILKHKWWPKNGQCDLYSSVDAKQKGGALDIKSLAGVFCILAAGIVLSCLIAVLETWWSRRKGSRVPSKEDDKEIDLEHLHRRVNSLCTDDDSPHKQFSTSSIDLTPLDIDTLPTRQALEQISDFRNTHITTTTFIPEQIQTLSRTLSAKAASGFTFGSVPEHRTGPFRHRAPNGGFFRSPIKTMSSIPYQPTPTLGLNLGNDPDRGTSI

GluD2-S646P = biological target: T2, GluD2-S646P (Rattus norvegicus, UniProt Q63226, S646P); assay: TEVC of constitutive current, Xenopus oocytes expressing GluD2-S646P
T2 construct: expressed in transfected cells; host or cells: Xenopus laevis oocytes injected with cRNA
T2 sequence (Q63226 24-1007 S646P): T1 sequence (Q63226 24-1007 D535E) with E512D, S623P

GluD1-WT = biological target: T3, GluD1-WT (Homo sapiens, UniProt Q9ULK0); assay: TEVC of constitutive current, Xenopus oocytes expressing GluD1-WT
T3 construct: expressed in transfected cells; host or cells: Xenopus laevis oocytes injected with cRNA
T3 sequence (Q9ULK0 21-1009): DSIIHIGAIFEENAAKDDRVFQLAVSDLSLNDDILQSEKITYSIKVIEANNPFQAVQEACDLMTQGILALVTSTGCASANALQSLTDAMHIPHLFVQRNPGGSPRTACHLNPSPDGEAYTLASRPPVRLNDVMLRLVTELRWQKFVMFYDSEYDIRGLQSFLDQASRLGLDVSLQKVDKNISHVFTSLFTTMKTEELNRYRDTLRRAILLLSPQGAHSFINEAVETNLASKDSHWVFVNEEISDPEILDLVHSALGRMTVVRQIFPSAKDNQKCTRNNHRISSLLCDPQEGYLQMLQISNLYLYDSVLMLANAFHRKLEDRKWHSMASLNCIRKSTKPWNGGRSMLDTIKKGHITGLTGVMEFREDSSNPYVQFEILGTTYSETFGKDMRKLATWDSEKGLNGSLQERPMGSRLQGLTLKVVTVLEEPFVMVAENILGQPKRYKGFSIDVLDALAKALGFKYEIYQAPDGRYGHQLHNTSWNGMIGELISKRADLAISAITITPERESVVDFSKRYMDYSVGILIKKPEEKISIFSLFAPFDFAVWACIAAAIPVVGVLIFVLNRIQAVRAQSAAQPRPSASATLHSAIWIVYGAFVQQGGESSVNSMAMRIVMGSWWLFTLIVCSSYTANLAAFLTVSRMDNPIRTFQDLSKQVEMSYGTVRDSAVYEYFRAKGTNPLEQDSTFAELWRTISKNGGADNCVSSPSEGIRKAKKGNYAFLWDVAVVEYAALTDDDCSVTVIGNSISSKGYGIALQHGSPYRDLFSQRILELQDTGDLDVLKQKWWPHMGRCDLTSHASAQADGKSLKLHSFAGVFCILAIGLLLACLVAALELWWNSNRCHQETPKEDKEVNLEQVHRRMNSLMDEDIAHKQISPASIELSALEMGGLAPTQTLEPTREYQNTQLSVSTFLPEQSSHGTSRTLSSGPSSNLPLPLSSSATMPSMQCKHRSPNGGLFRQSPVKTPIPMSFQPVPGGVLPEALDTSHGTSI

Row | Structure (SMILES) | D-Serine effect (Baseline −10 mM D-Serine) (GluD2-D535E; 10 mM D-serine) | D-Serine effect (Baseline −10 mM D-Serine) (GluD2-S646P; 10 mM D-serine) | D-Serine effect (Baseline −10 mM D-Serine) (GluD1-WT; 10 mM D-serine) | Pentamidine effect (Baseline −100 μM Pentamidine) (GluD2-D535E; 100 μM pentamidine) | Pentamidine effect (Baseline −100 μM Pentamidine) (GluD2-S646P; 100 μM pentamidine) | Pentamidine effect (Baseline −100 μM Pentamidine) (GluD1-WT; 100 μM pentamidine)
1 | N[C@H](CO)C(=O)O [D-serine] | −5.8 ± 2.4 (12) nA | 5.2 ± 6.0 (11) nA | 2.3 ± 2.9 (13) nA | – | – | –
2 | N=C(N)c1ccc(OCCCCCOc2ccc(C(=N)N)cc2)cc1 [Pentamidine, pentamidine] | – | – | – | −0.67 ± 1.1 (12) nA | 6.5 ± 5.4 (11) nA | 37 ± 11 (14) nA
